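Five concentrations, 48 hours, 96-well plates. Here, GI50 denotes the concentration required for 50% inhibition of growth. TGI denotes the concentration required for complete inhibition of growth.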

From PubChem BioAssay (NCI) come the findings set out here.

Among the test systems are MOLT-4 leukemia; OVCAR-3 ovarian; ACHN renal; SF-539 CNS; RXF 393 renal; COLO 205 colon; CCRF-CEM leukemia; NCI-H522 lung; UACC-257 melanoma; SR leukemia.
What all share (experiment): NCI tumour cell line growth inhibition, 48 h

In the case of `O=C1/C(=C/c2ccc3c(c2)OCO3)CCC1CN1CCOCC1` (stereo not given), the TGI with MOLT-4 leukemia was found to be 9460 nM; in the test on OVCAR-3 ovarian, 20500 nM; in the test on ACHN renal it was 24000 nM; with SF-539 CNS, 28100 nM; in the test on RXF 393 renal, 24700 nM; in the test with COLO 205 colon, 35800 nM. Also, the TGI with CCRF-CEM leukemia came out at 5910 nM; in the test with NCI-H522 lung, 2780 nM; in the test on UACC-257 melanoma, 22600 nM; in the test on SR leukemia, 5420 nM.

`O=C(CCCCCCSc1nc(-c2ccccc2)cc(-c2ccccc2)n1)NO`: the GI50 with MOLT-4 leukemia was 420 nM; with OVCAR-3 ovarian it was 2150 nM; in the test on ACHN renal it was 1450 nM; in the test with SF-539 CNS, 2430 nM; in the test with RXF 393 renal, 1720 nM; with COLO 205 colon, 2670 nM. Moreover, the GI50 is 535 nM in the test on CCRF-CEM leukemia, 1070 nM in the test with NCI-H522 lung, 2230 nM in the test on UACC-257 melanoma and 322 nM with SR leukemia. For the same molecule, the TGI in the test with MOLT-4 leukemia stood at 3300 nM; in the test with OVCAR-3 ovarian, 9260 nM; with ACHN renal, 3160 nM; with SF-539 CNS, 10000 nM; with RXF 393 renal, 4420 nM; with COLO 205 colon, 10700 nM. In addition, the TGI is 5360 nM in the test with CCRF-CEM leukemia, 7720 nM with NCI-H522 lung, 11100 nM with UACC-257 melanoma and 3870 nM in the test with SR leukemia.

Turning to `NC1=C(Br)C(=O)c2ncccc2C1=O`, the TGI in the test on MOLT-4 leukemia is 4830 nM; in the test on OVCAR-3 ovarian it was 2330 nM; with ACHN renal it was 1620 nM; in the test on SF-539 CNS it was 629 nM; in the test on RXF 393 renal, 1320 nM; with COLO 205 colon, 3180 nM. In addition, the TGI in the test with CCRF-CEM leukemia came out at 13700 nM; with NCI-H522 lung, 766 nM; in the test on UACC-257 melanoma, 1890 nM; in the test on SR leukemia it was 1840 nM.

Take `N=c1c2c(-c3ccccc3)c(-c3ccccc3)n(Cc3ccccc3)c2ncn1CCCO`: the GI50 is 743 nM with MOLT-4 leukemia; 1380 nM in the test on OVCAR-3 ovarian; 457 nM with ACHN renal; 1240 nM in the test with SF-539 CNS; 443 nM in the test with RXF 393 renal; 681 nM with COLO 205 colon. Also, the GI50 with CCRF-CEM leukemia was 1870 nM; in the test on NCI-H522 lung, 756 nM; in the test on UACC-257 melanoma, 1750 nM; in the test with SR leukemia, 268 nM. The TGI was found to be 11400 nM in the test on MOLT-4 leukemia; 8080 nM with OVCAR-3 ovarian; 14300 nM in the test on ACHN renal; 4170 nM in the test on SF-539 CNS; 2500 nM with RXF 393 renal; 2020 nM with COLO 205 colon. Besides, the TGI was 12800 nM with CCRF-CEM leukemia, 3460 nM with NCI-H522 lung, 5170 nM in the test on UACC-257 melanoma and 6400 nM in the test on SR leukemia.

As for `N#C/C(=C1\NN=C(N)C(c2ccc(Cl)cc2)=C1O)c1ccc(Cl)cc1`, the TGI in the test with MOLT-4 leukemia, with OVCAR-3 ovarian, in the test with ACHN renal, in the test with SF-539 CNS, with RXF 393 renal and with COLO 205 colon was > 100000 nM in each case. The TGI with CCRF-CEM leukemia, in the test on NCI-H522 lung, in the test with UACC-257 melanoma and in the test with SR leukemia was > 100000 nM each time.

For the molecule `Cc1ccc2c(c1C)-c1c(ccc(C)c1C)C(=O)C2=O`, the TGI in the test on MOLT-4 leukemia is 686 nM; in the test with OVCAR-3 ovarian, 1100 nM; in the test on ACHN renal, 3910 nM; in the test with SF-539 CNS it was 420 nM; with RXF 393 renal, 2570 nM; in the test with COLO 205 colon it was 4620 nM. In addition, the TGI is 991 nM in the test on CCRF-CEM leukemia, 403 nM in the test on NCI-H522 lung, 3480 nM in the test on UACC-257 melanoma and 560 nM in the test with SR leukemia.

Regarding `COc1ccc(C(=O)/C=C/c2c(C(F)(F)F)nc3sccn23)cc1OC`, the GI50 with MOLT-4 leukemia was 2220 nM; in the test with OVCAR-3 ovarian, 2120 nM; in the test with ACHN renal it was 5100 nM; in the test with SF-539 CNS, 2360 nM; in the test on RXF 393 renal it was 2510 nM; in the test with COLO 205 colon it was 4560 nM. Also, the GI50 is 2330 nM with CCRF-CEM leukemia, 2910 nM with NCI-H522 lung, 7770 nM in the test on UACC-257 melanoma and 493 nM in the test on SR leukemia. In addition, the TGI in the test on MOLT-4 leukemia is > 100000 nM; in the test on OVCAR-3 ovarian, 6140 nM; in the test on ACHN renal it was > 100000 nM; in the test with SF-539 CNS it was 8520 nM; with RXF 393 renal it was 29800 nM; with COLO 205 colon it was 72400 nM. For the same molecule, the TGI with CCRF-CEM leukemia is > 100000 nM; with NCI-H522 lung, 80700 nM; in the test with UACC-257 melanoma, > 100000 nM; in the test with SR leukemia, > 100000 nM.

As to `C=C1C(=O)OC2C1CC[C@H](C)C13OC(=O)CC1[C@@]23C` (stereo not given in full), the TGI in the test on MOLT-4 leukemia, in the test with OVCAR-3 ovarian, in the test with ACHN renal, in the test with SF-539 CNS, with RXF 393 renal and with COLO 205 colon was > 100000 nM in each case. Further, the TGI in the test with CCRF-CEM leukemia, in the test with NCI-H522 lung, in the test with UACC-257 melanoma and with SR leukemia was > 100000 nM in each case.

Consider `C=CCNCCCN1C(=O)c2ccc3c4c(ccc(c24)C1=O)C(=O)N(CCCNCC=C)C3=O`, for which the GI50 was 335 nM in the test with MOLT-4 leukemia; 298 nM in the test on OVCAR-3 ovarian; 268 nM in the test with ACHN renal; 584 nM in the test on SF-539 CNS; 344 nM in the test on RXF 393 renal; 172 nM in the test on COLO 205 colon. In addition, the GI50 in the test with CCRF-CEM leukemia is 349 nM; with NCI-H522 lung, 336 nM; in the test with UACC-257 melanoma, 333 nM; in the test on SR leukemia it was 407 nM. Further, the TGI with MOLT-4 leukemia is 1680 nM; with OVCAR-3 ovarian it was 889 nM; in the test on ACHN renal it was 4380 nM; with SF-539 CNS it was 2410 nM; in the test with RXF 393 renal, 1520 nM; with COLO 205 colon, 335 nM. In addition, the TGI in the test on CCRF-CEM leukemia came out at 3780 nM; with NCI-H522 lung, 1340 nM; in the test on UACC-257 melanoma it was 1200 nM; in the test on SR leukemia, 2080 nM.

On to `CCOC(=O)C1=C(NNC(=O)Cc2ccccc2)CSC1=Nc1ccccc1`, for which the TGI in the test on MOLT-4 leukemia, in the test on OVCAR-3 ovarian, with ACHN renal, in the test with SF-539 CNS, in the test with RXF 393 renal and in the test with COLO 205 colon was > 100000 nM throughout. Besides, the TGI in the test on CCRF-CEM leukemia, with NCI-H522 lung, with UACC-257 melanoma and in the test on SR leukemia was > 100000 nM in each case.
